Legend:
Human AML MV-4-11 cells = experiment: Inhibition of cell proliferation in human AML MV-4-11 cells; assay type: cell-based; parameters: key: Active: Compounds with an IC50 value less than 30 uM were deemed to be active; conditions: 72 hours, CellTiter Aqueous One Solution, 30 uM to 0.2 μM
Method: MV4-11 cells: 96-well plates were seeded with 5×10^4 cells per well of exponentially growing human AML MV-4-11 (CRL-9591) cells and immediately treated with two-fold dilutions of test compounds, ranging from 30 uM to 0.2 μM. Triplicate wells were used for each concentration, as well as a media only and three DMSO control wells. The cells and compounds were incubated at 37° C., 5% CO2 for 72 hours before adding 20 μL of the CellTiter Aqueous One Solution (Promega) to each well and incubating at 37° C., 5% CO2 for an additional 3-4 hours. The absorbance was taken at 490 nm in a spectrophotometer and the percentage of proliferation relative to DMSO-treated cells was calculated after correction from the blank well. IC50 were calculated using the GraphPad Prism software.

c-myc = experiment: Inhibition of c-myc expression (mRNA, real-time PCR) in MV4-11 cells; assay type: cell-based, Human; parameters: key: Active: Compounds with an IC50 value less than 30 μM were deemed to be active; conditions: 3 hours at 37° C., duplex with cyclophilin
Method: MV4-11 cells (2.5×10^4 cells) were plated in 96 well U-bottom plates with test compound or DMSO (0.1%), and incubated for 3 hours at 37° C. Cells were then harvested by centrifugation, lysed, and mRNA was isolated using the mRNA catcher plus kit (Invitrogen). Reverse transcription of the mRNA and duplex amplification of the c-myc and cyclophilin cDNAs were performed using the RNA Ultrasense kit (Invitrogen) and a ViiA7 real-time PCR machine (Applied Biosystems). IC50 values were determined from a dose response curve.

Brd4 bromodomain 1 = target: T1, Brd4 bromodomain 1 (Homo sapiens, UniProt O60885); experiment: Inhibition of binding of tetra-acetylated histone H4 and Brd4 bromodomain 1 by TR-FRET; conditions: His-tagged bromodomain 200 nM, biotinylated tetra-acetylated histone H4 peptide 25-50 nM, 2 hours at room temperature
T1 construct: made in house; host or cells: E. coli BL21(DE3)

Question: For COc1cc2nc(-c3cc(C)c(O)c(C)c3)[nH]c(=O)c2c(OC)c1CN1CCOCC1 [Example 75, 2-(4-hydroxy-3,5-dimethylphenyl)-5,7-dimethoxy-6-(morpholinomethyl)quinazolin-4(3H)-one], which melting point is on record?
Answer: Its melting point is 237 to 239.1 °C.

Question: What about the “cell proliferation activity (<30 uM)” value (Human AML MV-4-11 cells) of the same compound?
Answer: Its value is “Active”.

Question: What about the “c-myc activity (<30 uM)” value (c-myc) of the same compound?
Answer: Its value is “Active”.

Question: What about the “FRET activity (<50 uM)” value (Brd4 bromodomain 1) of the same compound?
Answer: The value was “Active”.

— patent publication US20130281397A1, “TREATMENT OF DISEASES BY EPIGENETIC REGULATION” (RVX Therapeutics Inc., priority 2012, published 2013)
